Some test systems named below: OVCAR-8 ovarian; SNB-75 CNS; NCI-H23 lung; NCI-H226 lung; LOX IMVI melanoma; RXF 393 renal; SF-539 CNS; SN12C renal; SW-620 colon; UO-31 renal; U251 CNS; TK-10 renal; MDA-N; HCT-15 colon; HL-60(TB) leukemia; MALME-3M melanoma; A498 renal; NCI-H522 lung.
Holding throughout (experiment): NCI anticancer screen, dose series, 48 h

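Protocol summary: plate cells (96-well), add compound at 5 concentrations, incubate 48 h, interpolate endpoints linearly. TGI: concentration producing complete growth inhibition.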 Where only a bound is given, the exact number is not on record here.

These results are taken from PubChem BioAssay (NCI).

Regarding `CCc1cc(=O)n(/C(C)=C/c2ccccc2)n1C`, the TGI in the experiment with OVCAR-8 ovarian, with SNB-75 CNS, with NCI-H23 lung, in the experiment on NCI-H226 lung, with LOX IMVI melanoma and in the experiment on RXF 393 renal was > 100 µM each time. Moreover, the TGI in the experiment with SF-539 CNS, with SN12C renal, in the experiment with SW-620 colon, with UO-31 renal, with U251 CNS and in the experiment with TK-10 renal was > 100 µM throughout. In addition, in the experiment with MDA-N, the TGI is > 100 µM.

Take `CCOC(=O)C1=C(C)NC(=O)N([N+](=O)[O-])C1c1ccccc1C(F)(F)F` (stereo unspecified): the TGI in the experiment on HCT-15 colon, in the experiment on OVCAR-8 ovarian, with HL-60(TB) leukemia, in the experiment with NCI-H23 lung, in the experiment on NCI-H226 lung and in the experiment on LOX IMVI melanoma was > 100 µM each time. For the same compound, the TGI in the experiment with RXF 393 renal was > 100 µM; with SF-539 CNS, 71.9 µM; with SN12C renal, > 100 µM; in the experiment with SW-620 colon it was > 100 µM; in the experiment with UO-31 renal, > 100 µM; in the experiment on MALME-3M melanoma, > 100 µM. For the same compound, the TGI is > 100 µM with U251 CNS, > 100 µM with TK-10 renal, > 100 µM with A498 renal and 79.7 µM in the experiment on MDA-N.

As to `COc1ccc(/C(C)=N/NC(=S)N(C)C)c(O)c1`, the TGI in the experiment with SNB-75 CNS was > 100 µM; in the experiment with NCI-H23 lung, 72.9 µM; in the experiment with LOX IMVI melanoma, 12.4 µM; in the experiment on NCI-H522 lung, > 100 µM; with SN12C renal it was > 100 µM; in the experiment with SW-620 colon, > 100 µM. Besides, the TGI was 36 µM with UO-31 renal, > 100 µM with U251 CNS and > 100 µM in the experiment on MDA-N.

As to `Cc1cc(C)nc(NS(=O)(=O)c2ccc(Nc3c4ccccc4nc4c(C(=O)NCCO)cccc34)cc2)n1`, the TGI in the experiment with HCT-15 colon was 46 µM; in the experiment on OVCAR-8 ovarian it was > 100 µM; with HL-60(TB) leukemia, > 100 µM; with SNB-75 CNS, 21.6 µM; in the experiment on NCI-H23 lung, > 100 µM; in the experiment with LOX IMVI melanoma, 25.5 µM. Also, the TGI in the experiment with NCI-H522 lung is 30 µM; with SN12C renal, > 100 µM; in the experiment on SW-620 colon, > 100 µM; in the experiment with MALME-3M melanoma, 28.7 µM; in the experiment on U251 CNS it was > 100 µM; with A498 renal it was > 100 µM. The compound further yielded a TGI in the experiment with MDA-N of 69.6 µM.
